Laboratory results reported in ChEMBL document CHEMBL6083262, “Stereorandomized Oncocins with Preserved Ribosome Binding and Antibacterial Activity” (J Med Chem, 2024).
Calls of active or inactive are those of the source. The rule behind the calls is not given here. Non-standard residues stand in square brackets, D forms with d. Residues, ends and D or L forms follow the SMILES beside them.

How the values were obtained:
Escherichia coli [1] = test: Bacteriostatic activity against Escherichia coli at 8 times MIC in full muller hinton medium by Time-kill assay; assay type: functional, organism-based
Klebsiella pneumoniae [2] = test: Bacteriostatic activity against Klebsiella pneumoniae at 8 times MIC in full muller hinton medium by Time-kill assay; assay type: functional, organism-based
Escherichia coli [3] = test: Bacteriostatic activity against Escherichia coli assessed as detachment of inner membrane from outer membrane by measuring a large void at 8 times MIC in full muller hinton medium by transmission electron microscopic analysis; assay type: functional, organism-based
Klebsiella pneumoniae [4] = test: Bacteriostatic activity against Klebsiella pneumoniae assessed as detachment of inner membrane from outer membrane by measuring a large void at 8 times MIC in full muller hinton medium by transmission electron microscopic analysis; assay type: functional, organism-based
Escherichia coli [5] = test: Bacteriostatic activity against Escherichia coli assessed as small intracellular vesicles at 8 times MIC in full muller hinton medium by transmission electron microscopic analysis; assay type: functional, organism-based
Klebsiella pneumoniae [6] = test: Bacteriostatic activity against Klebsiella pneumoniae assessed as small intracellular vesicles at 8 times MIC in full muller hinton medium by transmission electron microscopic analysis; assay type: functional, organism-based
Escherichia coli [7] = test: Bacteriostatic activity against Escherichia coli assessed as membrane perturbation at 8 times MIC in full muller hinton medium by transmission electron microscopic analysis; assay type: functional, organism-based
Klebsiella pneumoniae [8] = test: Bacteriostatic activity against Klebsiella pneumoniae assessed as membrane perturbation at 8 times MIC in full muller hinton medium by transmission electron microscopic analysis; assay type: functional, organism-based
Staphylococcus aureus [9] = test: Antimicrobial activity against methicillin-resistant Staphylococcus aureus COL incubated for 16 to 20 hrs in full muller hinton medium by broth microdilution method; assay type: functional; conditions: time 16-20 hrs
[10] = Hemolytic activity in human RBC incubated for 4 hrs; assay type: toxicity, cell-based; conditions: erythrocyte
Pseudomonas aeruginosa [11] = test: Antibacterial activity against multidrug-resistant Pseudomonas aeruginosa PA14 incubated for 16 to 20 hrs in full muller hinton medium by broth microdilution method; assay type: functional; conditions: time 16-20 hrs
Pseudomonas aeruginosa [12] = test: Antibacterial activity against multidrug-resistant Pseudomonas aeruginosa PA14 4.13 harboring phoQ mutant incubated for 16 to 20 hrs in full muller hinton medium by broth microdilution method; assay type: functional; conditions: time 16-20 hrs
Pseudomonas aeruginosa [13] = test: Antibacterial activity against multidrug-resistant Pseudomonas aeruginosa PA14 4.18 harboring pmrB mutant incubated for 16 to 20 hrs in full muller hinton medium by broth microdilution method; assay type: functional; conditions: time 16-20 hrs
Pseudomonas aeruginosa [14] = test: Antibacterial activity against multidrug-resistant Pseudomonas aeruginosa PA14 2P4 harboring pmrB mutant incubated for 16 to 20 hrs in full muller hinton medium by broth microdilution method; assay type: functional; conditions: time 16-20 hrs
Pseudomonas aeruginosa [15] = test: Antibacterial activity against multidrug-resistant Pseudomonas aeruginosa clinical isolate ZEM9A incubated for 16 to 20 hrs in full muller hinton medium by broth microdilution method; assay type: functional; conditions: time 16-20 hrs
rRNA = test: Binding affinity to [gamma32 P-ATP] labeled Escherichia coli MG1655 23S ribosomal RNA (5-CCCTTGGGACCTACTTC-3') at U2506 position assessed as increase in band intensity at 1 uM incubated for 2.5 hrs in full muller hinton medium by CMCT based gel electrophoresis; assay type: nucleic-acid assay
Pseudomonas aeruginosa [16] = test: Antimicrobial activity against Pseudomonas aeruginosa PAO1 incubated for 16 to 20 hrs in full muller hinton medium by broth microdilution method; assay type: functional; conditions: time 16-20 hrs
Acinetobacter baumannii = test: Antimicrobial activity against Acinetobacter baumannii ATCC 19606 incubated for 16 to 20 hrs in full muller hinton medium by broth microdilution method; assay type: functional; conditions: time 16-20 hrs
Staphylococcus aureus [17] = test: Antimicrobial activity against methicillin-resistant Staphylococcus aureus COL incubated for 16 to 20 hrs in 12.5 % muller hinton medium by broth microdilution method; assay type: functional; conditions: time 16-20 hrs
Klebsiella pneumoniae [18] = test: Antimicrobial activity against Klebsiella pneumoniae NCTC 418 incubated for 16 to 20 hrs in full muller hinton medium by broth microdilution method; assay type: functional; conditions: time 16-20 hrs

Row | Compound | Activity (Escherichia coli [1]) | Activity (Klebsiella pneumoniae [2]) | Activity (Escherichia coli [3]) | Activity (Klebsiella pneumoniae [4]) | Activity (Escherichia coli [5]) | Activity (Klebsiella pneumoniae [6]) | Activity (Escherichia coli [7]) | Activity (Klebsiella pneumoniae [8]) | MIC (Staphylococcus aureus [9]) | MHC [10] | MIC (Pseudomonas aeruginosa [11]) | MIC (Pseudomonas aeruginosa [12]) | MIC (Pseudomonas aeruginosa [13]) | MIC (Pseudomonas aeruginosa [14]) | MIC (Pseudomonas aeruginosa [15]) | Activity (rRNA) | MIC (Pseudomonas aeruginosa [16]) | MIC (Acinetobacter baumannii) | MIC (Staphylococcus aureus [17]) | MIC (Klebsiella pneumoniae [18])
1 | CC[C@H]1OC(=O)[C@H](C)[C@@H](O[C@H]2C[C@@](C)(OC)[C@@H](O)[C@H](C)O2)[C@H](C)[C@@H](O[C@@H]2O[C@H](C)C[C@H](N(C)C)[C@H]2O)[C@](C)(O)C[C@@H](C)CN(C)[C@H](C)[C@@H](O)[C@]1(C)O | Active | Active | Active | Active | Active | Active | Active; Few Membrane Perturbation Observed | Active; Few Membrane Perturbation Observed |  |  |  |  |  |  |  |  |  |  |  | 
2 | CC[C@H](C)[C@H](NC(=O)[C@@H](CCCNC(=N)N)NC(=O)[C@H](CCCNC(=N)N)NC(=O)[C@@H]1CCCN1C(=O)[C@@H]1CCCN1C(=O)[C@H](CCCNC(=N)N)NC(=O)[C@@H]1CCCN1C(=O)[C@H](CCCNC(=N)N)NC(=O)[C@@H]1CCCN1C(=O)[C@H](CC(C)C)NC(=O)[C@H](Cc1ccc(O)cc1)NC(=O)[C@@H]1CCCN1C(=O)[C@@H]1CCCN1C(=O)[C@H](CCCCN)NC(=O)[C@H](CC(=O)O)NC(=O)[C@@H](N)C(C)C)C(=O)N[C@@H](Cc1ccc(O)cc1)C(=O)N[C@@H](CC(N)=O)C(=O)N[C@H](CCCNC(=N)N)C(N)=O (H-VDKPPYLPRPRPPR[dR]IYN[dR]-NH2) |  |  |  |  |  |  |  |  | > 64 µg/mL | > 1000 µg/mL | > 32 µg/mL | > 32 µg/mL | > 32 µg/mL | > 64 µg/mL | > 64 µg/mL |  |  |  |  | 
3 | CC[C@@H](C)[C@@H](NC(=O)[C@@H](CCCNC(=N)N)NC(=O)[C@H](CCCNC(=N)N)NC(=O)[C@@H]1CCCN1C(=O)[C@@H]1CCCN1C(=O)[C@H](CCCNC(=N)N)NC(=O)[C@@H]1CCCN1C(=O)[C@H](CCCNC(=N)N)NC(=O)[C@@H]1CCCN1C(=O)[C@H](CC(C)C)NC(=O)[C@H](Cc1ccc(O)cc1)NC(=O)[C@@H]1CCCN1C(=O)[C@@H]1CCCN1C(=O)[C@H](CCCCN)NC(=O)[C@H](CC(=O)O)NC(=O)[C@@H](N)C(C)C)C(=O)N[C@H](Cc1ccc(O)cc1)C(=O)N[C@H](CC(N)=O)C(=O)N[C@H](CCCNC(=N)N)C(N)=O (H-VDKPPYLPRPRPPR[dR][dI][dY][dN][dR]-NH2) | Active | Active | Active | Active | Active | Active | Active; Few Membrane Perturbation Observed | Active; Few Membrane Perturbation Observed | > 64 µg/mL | > 1000 µg/mL | > 64 µg/mL |  |  | > 64 µg/mL | > 64 µg/mL | Active |  |  |  | 
4 | CC[C@H](C)[C@H](NC(=O)[C@H](CCCNC(=N)N)NC(=O)[C@H](CCCNC(=N)N)NC(=O)[C@@H]1CCCN1C(=O)[C@@H]1CCCN1C(=O)[C@H](CCCNC(=N)N)NC(=O)[C@@H]1CCCN1C(=O)[C@@H](CCCNC(=N)N)NC(=O)[C@@H]1CCCN1C(=O)[C@H](CC(C)C)NC(=O)[C@H](Cc1ccc(O)cc1)NC(=O)[C@@H]1CCCN1C(=O)[C@@H]1CCCN1C(=O)[C@H](CCCCN)NC(=O)[C@H](CC(=O)O)NC(=O)[C@@H](N)C(C)C)C(=O)N[C@@H](Cc1ccc(O)cc1)C(=O)N[C@@H](CC(N)=O)C(=O)N[C@@H](CCCNC(=N)N)C(N)=O (H-VDKPPYLP[dR]PRPPRRIYNR-NH2) |  |  |  |  |  |  |  |  | > 64 µg/mL | > 1000 µg/mL |  |  |  |  |  |  | > 64 µg/mL | > 64 µg/mL | > 64 µg/mL | 
5 | CC[C@H](C)[C@H](NC(=O)[C@H](CCCNC(=N)N)NC(=O)[C@H](CCCNC(=N)N)NC(=O)[C@@H]1CCCN1C(=O)[C@@H]1CCCN1C(=O)[C@H](CCCNC(=N)N)NC(=O)[C@@H]1CCCN1C(=O)[C@H](CCCNC(=N)N)NC(=O)[C@H]1CCCN1C(=O)[C@H](CC(C)C)NC(=O)[C@H](Cc1ccc(O)cc1)NC(=O)[C@@H]1CCCN1C(=O)[C@@H]1CCCN1C(=O)[C@H](CCCCN)NC(=O)[C@H](CC(=O)O)NC(=O)[C@@H](N)C(C)C)C(=O)N[C@@H](Cc1ccc(O)cc1)C(=O)N[C@@H](CC(N)=O)C(=O)N[C@@H](CCCNC(=N)N)C(N)=O (H-VDKPPYL[dP]RPRPPRRIYNR-NH2) |  |  |  |  |  |  |  |  | > 64 µg/mL | > 1000 µg/mL |  |  |  |  |  |  | > 64 µg/mL | > 64 µg/mL |  | > 64 µg/mL
